Reference: patent USRE39591E1, “6-O-substituted ketolides having antibacterial activity” (Abbott Laboratories, priority 1996, dated 2007)
Converted amounts (≈) assume the structure as drawn.

Tested on: up to 32 different microorganisms
Assay: in vitro antibacterial activity (MIC), agar dilution on Brain Heart Infusion (BHI) agar with Steers replicator
Format: cell-based
Details: unit assumed
In short: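 Up to 32 strains were replicator-inoculated (1:100, or 1:10 for Micrococcus and Streptococcus) onto BHI agar plates holding serial compound dilutions and kept 20-24 h at 35-37° C. Plates were read visually against drug-free growth controls, with erythromycin A run alongside; MIC was the lowest concentration giving no growth, slight haze or sparse colonies.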

CC[C@H]1OC(=O)[C@H](C)C(=O)[C@H](C)[C@@H](O[C@@H]2O[C@H](C)C[C@H](N(C)C)[C@H]2O)[C@@](C)(OCC=Cc2cnc3ccccc3c2)C[C@@H](C)C(=O)[C@H](C)[C@H]2N(C)C(=O)O[C@]12C [Example 180, Compound of Formula (IX): L is CO, T is N(CH3), R is —CH2CH═CH-(3-quinolyl)]
MIC (Candida albicans CCH 442 (code TT)): > 100 mg/L | MIC (Enterococcus faecism ATCC 8043 (code II)): 0.05 mg/L | MIC (Escherichia coli DC-2 (code SS)): > 100 mg/L | MIC (Escherichia coli JUHL (code QQ)): > 100 mg/L | MIC (Escherichia coli SS (code RR)): 0.2 mg/L | MIC (Haemophilis influenzae DILL AMP R (code WW)): 4 mg/L | MIC (Micrococcus luteus ATCC 4698 (code PP)): 0.1 mg/L | MIC (Micrococcus luteus ATCC 9341 (code OO)): 0.02 mg/L | MIC (Mycobacterium smegmatis ATCC 114 (code UU)): 0.2 mg/L | MIC (Nocardia Asteroides ATCC9970 (code VV)): 0.1 mg/L | MIC (Staphylococcus aureus 1775 (code GG)): > 100 mg/L | MIC (Staphylococcus aureus A5177 (code BB)): 0.1 mg/L | MIC (Staphylococcus aureus A-5278 (code CC)): > 100 mg/L | MIC (Staphylococcus aureus ATCC 6538P (code AA)): 0.1 mg/L | MIC (Staphylococcus aureus CMX 553 (code FF)): 0.1 mg/L | MIC (Staphylococcus aureus CMX 642A (code DD)): 0.1 mg/L | MIC (Staphylococcus aureus NCTC10649M (code EE)): 0.1 mg/L | MIC (Staphylococcus epidermidis 3519 (code HH)): 0.1 mg/L | MIC (Streptococcus Pneumonia 5649 (code ZZA)): 0.25 mg/L | MIC (Streptococcus Pneumonia 5979 (code ZZ)): 128 mg/L | MIC (Streptococcus Pneumonia ATCC6303 (code XX)): 0.03 mg/L | MIC (Streptococcus Pneumonia GYR 1171 (code YY)): 0.03 mg/L | MIC (Streptococcus agalactiae CMX 508 (code KK)): 0.05 mg/L | MIC (Streptococcus bovis A-5169 (code JJ)): 0.02 mg/L | MIC (Streptococcus pyogenes 930 (code MM)): 25 mg/L | MIC (Streptococcus pyogenes EES61 (code LL)): 0.02 mg/L | MIC (Streptococcus pyogenes PIU 2548 (code NN)): 0.2 mg/L

CCC1OC(=O)C(C)C(=O)C(C)C(OC2OC(C)CC(N(C)C)C2O)C(C)(OCC=Cc2ccc3[nH]c4ccccc4c3c2)CC(C)C(=O)C(C)C2NC(=O)OC12C (stereo not drawn) [Example 204, R is —CH2CH═CH-(3-carbazolyl)]
MIC (organism code AA): 0.1 mg/L (≈ 0.124 µM) | MIC (organism code BB): 0.1 mg/L (≈ 0.124 µM) | MIC (organism code CC): > 100 mg/L | MIC (organism code DD): 0.1 mg/L (≈ 0.124 µM) | MIC (organism code EE): 0.1 mg/L (≈ 0.124 µM) | MIC (organism code FF): 0.1 mg/L (≈ 0.124 µM) | MIC (organism code GG): > 100 mg/L | MIC (organism code HH): 0.1 mg/L (≈ 0.124 µM) | MIC (organism code II): 0.05 mg/L (≈ 0.0622 µM) | MIC (organism code JJ): 0.01 mg/L (≈ 0.0124 µM) | MIC (organism code KK): 0.01 mg/L (≈ 0.0124 µM) | MIC (organism code LL): 0.01 mg/L (≈ 0.0124 µM) | MIC (organism code MM): 3.1 mg/L (≈ 3.86 µM) | MIC (organism code NN): 0.2 mg/L (≈ 0.249 µM) | MIC (organism code OO): 0.02 mg/L (≈ 0.0249 µM) | MIC (organism code PP): 0.1 mg/L (≈ 0.124 µM) | MIC (organism code QQ): > 100 mg/L | MIC (organism code RR): 0.78 mg/L (≈ 0.97 µM) | MIC (organism code SS): > 100 mg/L | MIC (organism code TT): > 100 mg/L | MIC (organism code UU): 0.78 mg/L (≈ 0.97 µM) | MIC (organism code VV): 0.1 mg/L (≈ 0.124 µM) | MIC (organism code WW): 4 mg/L (≈ 4.98 µM) | MIC (organism code XX): 0.06 mg/L (≈ 0.0746 µM) | MIC (organism code YY): 0.06 mg/L (≈ 0.0746 µM) | MIC (organism code ZZ): 8 mg/L (≈ 9.95 µM) | MIC (organism code ZZA): 0.5 mg/L (≈ 0.622 µM)

CCC1OC(=O)C(C)C(=O)C(C)C(OC2OC(C)CC(N(C)C)C2O)C(C)(OCC=Cc2ccnc3ccccc23)CC(C)C(=O)C(C)C2NC(=O)OC12C (stereo not drawn) [Example 213, R is —CH2CH═CH-(4-quinolyl)]
MIC (organism code AA): 0.2 mg/L (≈ 0.261 µM) | MIC (organism code BB): 0.2 mg/L (≈ 0.261 µM) | MIC (organism code CC): > 100 mg/L | MIC (organism code DD): 0.2 mg/L (≈ 0.261 µM) | MIC (organism code EE): 0.2 mg/L (≈ 0.261 µM) | MIC (organism code FF): 0.2 mg/L (≈ 0.261 µM) | MIC (organism code GG): > 100 mg/L | MIC (organism code HH): 0.2 mg/L (≈ 0.261 µM) | MIC (organism code II): 0.1 mg/L (≈ 0.131 µM) | MIC (organism code JJ): 0.05 mg/L (≈ 0.0653 µM) | MIC (organism code KK): 0.05 mg/L (≈ 0.0653 µM) | MIC (organism code LL): 0.02 mg/L (≈ 0.0261 µM) | MIC (organism code MM): 100 mg/L (≈ 131 µM) | MIC (organism code NN): 0.39 mg/L (≈ 0.509 µM) | MIC (organism code OO): 0.05 mg/L (≈ 0.0653 µM) | MIC (organism code PP): 0.2 mg/L (≈ 0.261 µM) | MIC (organism code QQ): 100 mg/L (≈ 131 µM) | MIC (organism code RR): 0.39 mg/L (≈ 0.509 µM) | MIC (organism code SS): > 100 mg/L | MIC (organism code TT): > 100 mg/L | MIC (organism code UU): 0.39 mg/L (≈ 0.509 µM) | MIC (organism code VV): 0.39 mg/L (≈ 0.509 µM) | MIC (organism code WW): 4 mg/L (≈ 5.22 µM) | MIC (organism code XX): 0.03 mg/L (≈ 0.0392 µM) | MIC (organism code YY): 0.03 mg/L (≈ 0.0392 µM) | MIC (organism code ZZ): > 128 mg/L | MIC (organism code ZZA): 1 mg/L (≈ 1.31 µM)

CC[C@H]1OC(=O)[C@H](C)C(=O)[C@H](C)[C@@H](O[C@@H]2O[C@H](C)C[C@H](N(C)C)[C@H]2O)[C@@](C)(OCCNCc2ccc3ncccc3c2)C[C@@H](C)C(=O)[C@H](C)[C@H]2NC(=O)O[C@@]21C [Example 227, Compound of Formula (IX): L is CO, T is NH, R is —CH2CH2NHCH2(6-quinolyl)]
MIC (organism code AA): 0.2 mg/L | MIC (organism code BB): 0.2 mg/L | MIC (organism code CC): > 100 mg/L | MIC (organism code DD): 0.2 mg/L | MIC (organism code EE): 0.2 mg/L | MIC (organism code FF): 0.2 mg/L | MIC (organism code GG): > 100 mg/L | MIC (organism code HH): 0.2 mg/L | MIC (organism code II): 0.05 mg/L | MIC (organism code JJ): ≤ 0.005 mg/L | MIC (organism code KK): 0.05 mg/L | MIC (organism code LL): 0.02 mg/L | MIC (organism code MM): 50 mg/L | MIC (organism code NN): 0.39 mg/L | MIC (organism code OO): 0.05 mg/L | MIC (organism code PP): 0.39 mg/L | MIC (organism code QQ): 6.2 mg/L | MIC (organism code RR): 0.1 mg/L | MIC (organism code SS): 25 mg/L | MIC (organism code TT): > 100 mg/L | MIC (organism code UU): 1.56 mg/L | MIC (organism code VV): 0.05 mg/L | MIC (organism code WW): 2 mg/L | MIC (organism code XX): 0.03 mg/L | MIC (organism code YY): 0.03 mg/L | MIC (organism code ZZ): > 64 mg/L | MIC (organism code ZZA): 2 mg/L

CCC1OC(=O)C(C)C(=O)C(C)C(OC2OC(C)CC(N(C)C)C2O)C(C)(OCC(O)c2ccccc2)CC(C)C(=O)C(C)C2NC(=O)OC12C (single isomer, unassigned) [Example 261A]
MIC (organism code AA): 6.2 mg/L (≈ 8.62 µM) | MIC (organism code BB): 6.2 mg/L (≈ 8.62 µM) | MIC (organism code CC): > 100 mg/L | MIC (organism code DD): 12.5 mg/L (≈ 17.4 µM) | MIC (organism code EE): 12.5 mg/L (≈ 17.4 µM) | MIC (organism code FF): 12.5 mg/L (≈ 17.4 µM) | MIC (organism code GG): > 100 mg/L | MIC (organism code HH): 6.2 mg/L (≈ 8.62 µM) | MIC (organism code II): 1.56 mg/L (≈ 2.17 µM) | MIC (organism code JJ): 0.39 mg/L (≈ 0.543 µM) | MIC (organism code KK): 0.39 mg/L (≈ 0.543 µM) | MIC (organism code LL): 0.39 mg/L (≈ 0.543 µM) | MIC (organism code MM): > 100 mg/L | MIC (organism code NN): 1.56 mg/L (≈ 2.17 µM) | MIC (organism code OO): 0.78 mg/L (≈ 1.09 µM) | MIC (organism code PP): 3.1 mg/L (≈ 4.31 µM) | MIC (organism code QQ): > 100 mg/L | MIC (organism code RR): 6.2 mg/L (≈ 8.62 µM) | MIC (organism code SS): > 100 mg/L | MIC (organism code TT): > 100 mg/L | MIC (organism code UU): 25 mg/L (≈ 34.8 µM) | MIC (organism code VV): 6.2 mg/L (≈ 8.62 µM) | MIC (organism code WW): 64 mg/L (≈ 89 µM) | MIC (organism code XX): 1 mg/L (≈ 1.39 µM) | MIC (organism code YY): 1 mg/L (≈ 1.39 µM) | MIC (organism code ZZ): > 128 mg/L | MIC (organism code ZZA): 2 mg/L (≈ 2.78 µM)
